Data as given in article PMC8308784, “Novel Purine Chemotypes with Activity against Plasmodium falciparum and Trypanosoma cruzi” (Pharmaceuticals, 2021).
Read-outs that look alike come from different tables or passages of the source.

What was measured:
Assay type in all cases: cell-based
P. falciparum 3D7 = assay: P. falciparum primary screening at three fixed concentrations; settings: average of at least three experiments; for activity at 1 µM / activity at 10 µM / activity at 100 µM: Plasmodium falciparum, read-out: Primary screening, parasite growth relative to the negative control; for activity at 1 µM: 3D7, compound at 1 µM; for activity at 10 µM: 3D7, compound at 10 µM; for activity at 100 µM: 3D7, compound at 100 µM
Description: Apicomplexan parasite cultures were maintained at 3% hematocrit under an atmosphere of 37 °C in 93% N2, 5% CO2, and 2% O2, following standard methods. Synchronized cultures were obtained via 5% sorbitol lysis.
[…] Conditions were tested in triplicate for every concentration, and the test was repeated when the standard deviation was above 10% for any concentration. Z-values varied between 0.83 and 0.98 in the different plates analyzed. Selected compounds (12.3% potential hit rate) were further analyzed via standard growth inhibition assays, carried out as previously described in [54]. Briefly, parasitemia was adjusted to 1–1.3%, with >90% rings after sorbitol synchronization. Two hundred microliters of parasite culture were plated in 96-well microplates and incubated for 48 h at 37 °C in the presence of decreasing concentrations of the tested compounds, in triplicate. Parasitemia was determined by fluorescence-assisted cell sorting (FACS). Non-infected RBCs and samples containing parasitized RBCs (including controls with DMSO as carrier solvent) were diluted in PBS to a final concentration of ~1–10 × 10^6 cells/mL. The cell suspension was stained with SYTO 11 (0.5 mM stock in DMSO, Thermo Fisher Scientific, Waltham, MA, USA), to a final concentration of 0.5 μM. Samples were analyzed in a Becton Dickinson FACSCalibur. Sample excitation was carried out using a 488-nm, air-cooled argon-ion laser at a power of 15 mW, using forward and side scatter to gate the RBC population, and SYTO 11 green fluorescence (530 nm, FITC filter) was collected in a logarithmic scale. The single-cell population was selected on a forward–side scattergram, and the green fluorescence from this population was analyzed. Parasitemia was expressed as the number of parasitized cells per 100 erythrocytes.
(§1) Absorbance values derived from the anti-T. cruzi assays and fluorescence values from the anti-P. falciparum and cell toxicity assays were normalized to the controls. In the primary screening at three fixed doses, the compounds’ inhibitory activity was expressed as a percentage of the negative control (100% parasitic growth). In dose–response assays, the compounds’ IC50 and TC50 values were determined with GraphPad Prism 7 software (version 7.00, 2016), using a non-linear regression analysis model defined by the following equation: Y=100 ÷(1+10^((LogIC50−X)×HillSlope))

[1] = test system: T. cruzi Tulahuen strain expressing β-galactosidase; assay: anti-T. cruzi dose-response growth inhibition assay (Vero cells plus trypomastigotes, CPRG readout); settings: anti-T. cruzi IC50 of non-progressed compounds, read-out: Dose-response assay IC50
Description: (§2) T. cruzi parasites from the Tulahuen strain (discrete typing unit (DTU) VI) expressing β-galactosidase were maintained in culture by the infection of LLC-MK2 cells in DMEM supplemented with 2% FBS and 1% penicillin–streptomycin–glutamine (PSG), as described in [52]. When free-swimming trypomastigotes were released to the culture medium, they were centrifuged for 7 min at 2500 rpm and allowed to swim out of the pellet. Trypomastigotes were used to maintain the parasite cycle, or for the performance of the antiparasitic assays.
(§3) T. cruzi growth was primarily analyzed under three different concentrations (100, 10, and 1 mM) of the 81 compounds. Conditions were tested in triplicate for every concentration. Z-values varied between 0.81 and 0.92 in the different plates analyzed. Selected compounds (34.6% potential hit rate) were further analyzed via standard growth inhibition assays. The Z-values of dose–response assays correlated with those previously reported. For both assays, Vero cells and trypomastigotes from the Tulahuen T. cruzi strain expressing β-galactosidase were harvested, centrifuged, and resuspended in DMEM without phenol red supplemented with 1% PSG, 2% FBS, 1 mM sodium pyruvate, and 25 mM HEPES. Vero cells and trypomastigotes were counted, diluted at a concentration of 1 × 10^6 cells/mL each, and mixed 1:1 (v/v). Then, 100 μL of that mixture was added per well to the plates already containing the compounds. Each well contained 50,000 host cells and 50,000 parasites, i.e., multiplicity of infection (MOI) = 1. BNZ was used as control of maximal drug growth inhibition in each round, whereas each plate contained its own negative control (maximum parasite growth; Vero cells plus parasites without drugs) and positive control (minimum parasite growth; trypomastigote forms alone marking an enzymatic zero time or baseline galactosidase activity). After four days at 37 °C, 50 µL of a PBS solution containing 0.25% NP40 and 500 µM chlorophenol red-β-D-galactopyranoside (CPRG) substrate were added per well [32]. Plates were incubated at 37 °C for 4 h, and their absorbance read out at 590 nm using an Epoch Gene5 spectrophotometer.
as §1

[2] = test system: T. cruzi Tulahuen strain expressing β-galactosidase; assay: T. cruzi primary screening at three fixed concentrations
Description: as §2
as §3, with “T. cruzi growth was primarily analyzed under three different concentrations (100, 10, and 1 mM) of the 81 compounds.” left out
as §1

[3] = compound at 1 µM, average of at least three independent experiments
[4] = compound at 10 µM, average of at least three independent experiments

| SMILES | Primary screening, parasite growth relative to the negative control (P. falciparum 3D7; compound at 1 µM) [%] | Primary screening, parasite growth relative to the negative control (P. falciparum 3D7; compound at 10 µM) [%] | Primary screening, parasite growth relative to the negative control (P. falciparum 3D7; compound at 100 µM) [%] | IC50 [1] [µM] | Primary screening, growth inhibition values at 1 µM [2, 3] | Primary screening, growth inhibition values at 10 µM [2, 4] | activity at 1 µM (P. falciparum 3D7) [%] | activity at 10 µM (P. falciparum 3D7) [%] | activity at 100 µM (P. falciparum 3D7) [%] | activity at 100 µM ([2]; Trypanosoma cruzi, TULAHUEN, read-out: Primary screening, growth inhibition values at 100 µM) [%] | activity at 1 µM ([2]; Trypanosoma cruzi, TULAHUEN, compound at 1 µM, average of at least three independent experiments, read-out: Primary screening, growth inhibition values at 1 µM) [%] | activity at 10 µM ([2]; Trypanosoma cruzi, TULAHUEN, compound at 10 µM, average of at least three independent experiments, read-out: Primary screening, growth inhibition values at 10 µM) [%] | IC50 ([1]; Trypanosoma cruzi, TULAHUEN, Vero) [µM] |
| --- | --- | --- | --- | --- | --- | --- | --- | --- | --- | --- | --- | --- | --- |
| CCOc1ncnc2c1ncn2C(C)(C)C [MJ24] | 103.15 | 102.53 | 74.90 | 96.6 |  |  |  |  |  |  |  |  |  |
| Cc1nc2c(OCc3ccccc3)ncnc2n1N1CCOCC1 [Compound 22] | 97.98 | 78.53 | 73.65 |  |  |  |  |  |  |  |  |  |  |
| CN(C)n1c(-c2ccccc2)nc2c(OCc3ccccc3)ncnc21 [Compound 4] | 97.86 | 97.42 | 96.42 |  | 94.81 | 89.88 |  |  |  |  |  |  |  |
| c1ccc(COc2ncnc3c2ncn3Cc2ccccc2)cc1 [MJ11] |  |  |  |  |  |  | 103 | 102 | 31.8 | 6.06 | 91.4 | 85.5 | 17.7 |
| Cc1nc2c(OCc3ccccc3)ncnc2n1N1CCN(C)CC1 [Compound 28] | 90.78 | 89.44 | 44.36 | 40.4 |  |  |  |  |  |  |  |  |  |
| CCOc1ncnc2c1ncn2Cc1ccccc1 [MJ7] |  |  |  |  | 79.69 | 95.54 | 104 | 105 | 53.8 |  |  |  |  |
| c1ccc(COc2ncnc3c2ncn3N2CCOCC2)cc1 [Compound 23] | 101.16 | 104.67 | 98.97 |  | 93.82 | 94.90 |  |  |  |  |  |  |  |
| Cc1nc2c(OCc3ccccc3)ncnc2n1N(C)C [Compound 4M] | 100.27 | 101.23 | 88.99 |  | 88.68 | 89.08 |  |  |  |  |  |  |  |
| Cc1nc2c(OCc3ccccc3)ncnc2n1N1CCCCC1 [Compound 13M] | 101.41 | 100.79 | 87.03 |  | 91.73 | 92.01 |  |  |  |  |  |  |  |
| Cc1nc2c(NC(C)(C)C)ncnc2n1C(C)(C)C [Compound 2A] | 110.87 | 112.26 | 30.73 |  | 96.86 | 88.71 |  |  |  |  |  |  |  |
| CCOc1ncnc2c1nc(C)n2Cc1ccccc1 [MJ8] | 107.34 | 100.82 | 82.46 | 67.9 |  |  |  |  |  |  |  |  |  |
| c1ccc(COc2ncnc3c2ncn3N2CCCCC2)cc1 [Compound 13H] | 100.86 | 97.31 | 67.76 |  | 92.39 | 93.99 |  |  |  |  |  |  |  |
| CC(C)Oc1ncnc2c1ncn2C(C)C [MJ16] |  |  |  |  | 100.79 | 96.93 | 111 | 115 | 102 |  |  |  |  |
| CC(C)(C)Nc1ncnc2c1ncn2C(C)(C)C [Compound 3F] | 110.21 | 108.90 | 35.36 | 64.7 |  |  |  |  |  |  |  |  |  |
| CN1CCN(n2c(-c3ccccc3)nc3c(OCc4ccccc4)ncnc32)CC1 [Compound 27] | 97.79 | 87.07 | 63.16 | 33.2 |  |  |  |  |  |  |  |  |  |
| c1ccc(COc2ncnc3c2nc(-c2ccccc2)n3N2CCOCC2)cc1 [Compound 21] | 96.68 | 87.35 | 81.22 | 34.8 |  |  |  |  |  |  |  |  |  |
| Cc1nc2c(OCc3ccccc3)ncnc2n1C(C)C [MJ5] |  |  |  |  | 89.81 | 90.91 | 100 | 94.6 | 88.5 |  |  |  |  |
| Cc1nc2c(OC(C)C)ncnc2n1C(C)C [MJ17] | 105.71 | 108.49 | 94.00 |  | 97.87 | 93.73 |  |  |  |  |  |  |  |
| CCOc1ncnc2c1ncn2C(C)C [MJ1] | 102.27 | 99.79 | 94.06 |  | 94.41 | 97.93 |  |  |  |  |  |  |  |
